Data as given in paper PMC10484922, “Discovery of a selective and biologically active low-molecular weight antagonist of human interleukin-1β” (Nature Communications, 2023).

Key:
[1] = tested on: HEK-Blue IL-1β cells stimulated with hIL-1β; assay: HEK293 reporter gene assay, hIL-1β as trigger; assay type: cell-based, human
Description: (§1) We used HEK-Blue™ IL-1β cells that respond specifically to IL-1 (# hkb-il1b, InvivoGen). These cells can detect IL-1α and IL-1β, as these cytokines bind to the same receptor, IL-1R1. They express a Seap reporter gene under the control of the IFN-β minimal promoter fused to five NF-kappaB and five AP-1 binding sites. Thirty microliters (300,000 cells/ml) per well of a 384-well plate were plated overnight. Cells were then stimulated with graded concentrations of cytokines (hIL-1α or hIL-1β) in the absence or presence of canakinumab (Ilaris®, ILARI LYVI 150MG 22GLW.012, batch U003 0409)[22], anakinra (Kineret®, 100 mg/0.67 ml injectable solution, Sobi)[23], or compound (S)-2 (compounds were pre-mixed for 1 h with the cytokine prior to addition to cells) and further incubated overnight before assessment of Seap activity.

[2] = tested on: HEK-Blue IL-1β cells stimulated with hIL-1α; assay: HEK293 reporter gene assay, hIL-1α as trigger; assay type: cell-based, human
Description: as §1

IL-1β = IL-1β (Homo sapiens, UniProt P01584); assay: protein-observed 1H-13C-HMQC NMR binding (I/Io of Leu60 Cδ1H3); set-up: Mature hIL-1β was expressed in Escherichia coli; made in house; host or cells: Escherichia coli BL21 (DE3), pET17b
Description: ^1H–^13C- and ^1H–^15N-HMQC spectra were recorded on Bruker AVANCE 600 MHz and 800 MHz spectrometers equipped with TXI-cryocooled probeheads. In ligand binding experiments, protein concentrations were typically 50 μM in PBS, pH 7.4. Backbone assignments of hIL-1β in the ligand-bound state and unliganded state were obtained by a combination of a 3D triple resonance experiment HNCACB and a ^15N-edited NOESY spectrum, which were processed using TOPSPIN 3.2 and analyzed using CcpNmr AnalysisAssign 3.1.0[46]. ^15N-CEST experiments were run at weak B1 radiofrequency fields of 25 and 12.5 Hz on a Bruker AVANCE 800 MHz spectrometer with 113 increments and a total sweep width of 28 ppm in the pseudo-3D dimension. Peak intensities were extracted by fitting pseudo-Voigt lineshape models using peakipy (https://github.com/j-brady/peakipy). Fitted peak intensities were subsequently used to generate CEST profiles, and exchange parameters were fitted using ChemEx (https://github.com/gbouvignies/ChemEx).
Supplementary Figure 2. 13C-NMR and 19F-NMR reporter assays to monitor early
13C-HMQC spectra of hIL-1b (50 µM) were acquired in the presence (red) and absence (blue) of 500
µM compound and rows were extracted at the w1-frequency of the peak corresponding to Leu60 […]

[3] = tested on: normal human dermal fibroblasts stimulated with hIL-1β; assay: Human fibroblast IL-6 release assay, hIL-1β stimulated; assay type: cell-based; set-up: IL-6, average / inhibition, replicates of EXP1, EXP2, EXP3 / inhibition, Mean / IL-1beta (mean, SD): mean readout (IL-6 release): unit not given here; details: for Mean OD (OD 450nm) / IL-1beta (mean, SD): mean readout (IL-6 release): Figure 3c; for Mean OD (OD 450nm): compound 1 nM; for IL-1beta (mean, SD): mean readout (IL-6 release): compound @ 1nM
Description: as §1
(§2) Normal human dermal fibroblasts (NHDF) from Clonetics^TM (LONZA, Cat # CC-2509 (NHDF-Neo), Lot # 0000234242, used at passage ≤14) were seeded at a density of 5000 cells/well in 100 μL of culture medium using 96-well plates (flat bottom, TCT). Treatment with cytokines/compounds was performed as described above. Cells were incubated for another 6 h and were subsequently spun down (320g/3 min). IL-6 was measured in the supernatant by ELISA (BioLegend, # 430503) or HTRF (Cisbio, #62HIL06PEH).

[4] = tested on: normal human dermal fibroblasts stimulated with hIL-1α; assay: Human fibroblast IL-6 release assay, hIL-1α stimulated; assay type: cell-based; set-up: IL-1alpha (mean, SD): mean readout (IL-6 release): unit not given here; details: for Mean OD (OD 450nm) / IL-1alpha (mean, SD): mean readout (IL-6 release): Figure 3c; for Mean OD (OD 450nm): compound 1 nM; for IL-1alpha (mean, SD): mean readout (IL-6 release): compound @ 1nM
Description: as §1, §2

Chain of IL-1β (P01584 117-269): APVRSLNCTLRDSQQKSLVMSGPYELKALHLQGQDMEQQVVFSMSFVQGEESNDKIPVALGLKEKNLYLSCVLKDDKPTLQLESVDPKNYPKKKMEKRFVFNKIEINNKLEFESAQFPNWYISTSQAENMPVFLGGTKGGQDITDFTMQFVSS

Cc1ccc2c(c1)NC(=O)[C@@]2(c1cn[nH]c1)c1cc(-c2ccc(C(=O)O)cc2C(=O)O)ccc1O [(S) 2]
reporter gene assay signal, mean (Figure 3d) ([1]; IL-1beta 3.04596 pg/ml, inhibitor 50uM): 0.06
reporter gene assay signal, mean (Figure 3d) ([1]; IL-1beta 6.09192 pg/ml, inhibitor 50uM): 0.06
reporter gene assay signal, mean (Figure 3d) ([1]; IL-1beta 12.1838 pg/ml, inhibitor 50uM): 0.06
reporter gene assay signal, mean (Figure 3d) ([1]; IL-1beta 24.3677 pg/ml, inhibitor 50uM): 0.08
reporter gene assay signal, mean (Figure 3d) ([1]; IL-1beta 48.7353 pg/ml, inhibitor 50uM): 0.1
reporter gene assay signal, mean (Figure 3d) ([1]; IL-1beta 97.4707 pg/ml, inhibitor 50uM): 0.17
reporter gene assay signal, mean (Figure 3d) ([1]; IL-1beta 194.941 pg/ml, inhibitor 50uM): 0.41
reporter gene assay signal, mean (Figure 3d) ([1]; IL-1beta 389.883 pg/ml, inhibitor 50uM): 0.84
reporter gene assay signal, mean (Figure 3d) ([1]; IL-1beta 779.766 pg/ml, inhibitor 50uM): 1.26
reporter gene assay signal, mean (Figure 3d) ([1]; IL-1beta 1559.53 pg/ml, inhibitor 50uM): 1.6
reporter gene assay signal, mean (Figure 3d) ([1]; IL-1beta 3119.06 pg/ml, inhibitor 50uM): 1.74
reporter gene assay signal, mean (Figure 3d) ([1]; IL-1beta 6238.12 pg/ml, inhibitor 50uM): 1.87
reporter gene assay signal, mean (Figure 3d) ([1]; IL-1beta 12476.2 pg/ml, inhibitor 50uM): 1.96
reporter gene assay signal, mean (Figure 3d) ([1]; IL-1beta 24952.5 pg/ml, inhibitor 50uM): 2.06
reporter gene assay signal, mean (Figure 3d) ([1]; IL-1beta 49905 pg/ml, inhibitor 50uM): 2.02
reporter gene assay signal, mean (Figure 3d) ([2]; IL-1alpha 3.04596 pg/ml, inhibitor 50uM): 0.08
reporter gene assay signal, mean (Figure 3d) ([2]; IL-1alpha 6.09192 pg/ml, inhibitor 50uM): 0.1
reporter gene assay signal, mean (Figure 3d) ([2]; IL-1alpha 12.1838 pg/ml, inhibitor 50uM): 0.15
reporter gene assay signal, mean (Figure 3d) ([2]; IL-1alpha 24.3677 pg/ml, inhibitor 50uM): 0.1
reporter gene assay signal, mean (Figure 3d) ([2]; IL-1alpha 48.7353 pg/ml, inhibitor 50uM): 0.59
reporter gene assay signal, mean (Figure 3d) ([2]; IL-1alpha 97.4707 pg/ml, inhibitor 50uM): 1.08
reporter gene assay signal, mean (Figure 3d) ([2]; IL-1alpha 194.941 pg/ml, inhibitor 50uM): 1.42
reporter gene assay signal, mean (Figure 3d) ([2]; IL-1alpha 389.883 pg/ml, inhibitor 50uM): 1.67
reporter gene assay signal, mean (Figure 3d) ([2]; IL-1alpha 779.766 pg/ml, inhibitor 50uM): 1.82
reporter gene assay signal, mean (Figure 3d) ([2]; IL-1alpha 1559.53 pg/ml, inhibitor 50uM): 1.88
reporter gene assay signal, mean (Figure 3d) ([2]; IL-1alpha 3119.06 pg/ml, inhibitor 50uM): 1.91
reporter gene assay signal, mean (Figure 3d) ([2]; IL-1alpha 6238.12 pg/ml, inhibitor 50uM): 1.96
reporter gene assay signal, mean (Figure 3d) ([2]; IL-1alpha 12476.2 pg/ml, inhibitor 50uM): 1.97
reporter gene assay signal, mean (Figure 3d) ([2]; IL-1alpha 24952.5 pg/ml, inhibitor 50uM): 2.03
reporter gene assay signal, mean (Figure 3d) ([2]; IL-1alpha 49905 pg/ml, inhibitor 50uM): 2.01

O=C1Nc2cc(C(F)(F)F)ccc2[C@@]1(O)c1cc(Cl)ccc1O [Compound (R)-1]
binding to hIL-1β by protein-observed NMR (IL-1β): only enantiomer (S)-1 showed binding to the protein

anakinra: IL-1R1 antagonist [reference compound]
reporter gene assay signal, mean (Figure 3d) ([1]; IL-1beta 3.04596 pg/ml, inhibitor 3nM): 0.06
reporter gene assay signal, mean (Figure 3d) ([1]; IL-1beta 6.09192 pg/ml, inhibitor 3nM): 0.06
reporter gene assay signal, mean (Figure 3d) ([1]; IL-1beta 12.1838 pg/ml, inhibitor 3nM): 0.06
reporter gene assay signal, mean (Figure 3d) ([1]; IL-1beta 24.3677 pg/ml, inhibitor 3nM): 0.06
reporter gene assay signal, mean (Figure 3d) ([1]; IL-1beta 48.7353 pg/ml, inhibitor 3nM): 0.06
reporter gene assay signal, mean (Figure 3d) ([1]; IL-1beta 97.4707 pg/ml, inhibitor 3nM): 0.07
reporter gene assay signal, mean (Figure 3d) ([1]; IL-1beta 194.941 pg/ml, inhibitor 3nM): 0.08
reporter gene assay signal, mean (Figure 3d) ([1]; IL-1beta 389.883 pg/ml, inhibitor 3nM): 0.09
reporter gene assay signal, mean (Figure 3d) ([1]; IL-1beta 779.766 pg/ml, inhibitor 3nM): 0.17
reporter gene assay signal, mean (Figure 3d) ([1]; IL-1beta 1559.53 pg/ml, inhibitor 3nM): 0.37
reporter gene assay signal, mean (Figure 3d) ([1]; IL-1beta 3119.06 pg/ml, inhibitor 3nM): 0.68
reporter gene assay signal, mean (Figure 3d) ([1]; IL-1beta 6238.12 pg/ml, inhibitor 3nM): 1.15
reporter gene assay signal, mean (Figure 3d) ([1]; IL-1beta 12476.2 pg/ml, inhibitor 3nM): 1.43
reporter gene assay signal, mean (Figure 3d) ([1]; IL-1beta 24952.5 pg/ml, inhibitor 3nM): 1.66
reporter gene assay signal, mean (Figure 3d) ([1]; IL-1beta 49905 pg/ml, inhibitor 3nM): 1.81
reporter gene assay signal, mean (Figure 3d) ([2]; IL-1alpha 3.04596 pg/ml, inhibitor 3nM): 0.06
reporter gene assay signal, mean (Figure 3d) ([2]; IL-1alpha 6.09192 pg/ml, inhibitor 3nM): 0.06
reporter gene assay signal, mean (Figure 3d) ([2]; IL-1alpha 12.1838 pg/ml, inhibitor 3nM): 0.06
reporter gene assay signal, mean (Figure 3d) ([2]; IL-1alpha 24.3677 pg/ml, inhibitor 3nM): 0.06
reporter gene assay signal, mean (Figure 3d) ([2]; IL-1alpha 48.7353 pg/ml, inhibitor 3nM): 0.06
reporter gene assay signal, mean (Figure 3d) ([2]; IL-1alpha 97.4707 pg/ml, inhibitor 3nM): 0.06
reporter gene assay signal, mean (Figure 3d) ([2]; IL-1alpha 194.941 pg/ml, inhibitor 3nM): 0.07
reporter gene assay signal, mean (Figure 3d) ([2]; IL-1alpha 389.883 pg/ml, inhibitor 3nM): 0.08
reporter gene assay signal, mean (Figure 3d) ([2]; IL-1alpha 779.766 pg/ml, inhibitor 3nM): 0.09
reporter gene assay signal, mean (Figure 3d) ([2]; IL-1alpha 1559.53 pg/ml, inhibitor 3nM): 0.15
reporter gene assay signal, mean (Figure 3d) ([2]; IL-1alpha 3119.06 pg/ml, inhibitor 3nM): 0.24
reporter gene assay signal, mean (Figure 3d) ([2]; IL-1alpha 6238.12 pg/ml, inhibitor 3nM): 0.46
reporter gene assay signal, mean (Figure 3d) ([2]; IL-1alpha 12476.2 pg/ml, inhibitor 3nM): 0.84
reporter gene assay signal, mean (Figure 3d) ([2]; IL-1alpha 24952.5 pg/ml, inhibitor 3nM): 1.11
reporter gene assay signal, mean (Figure 3d) ([2]; IL-1alpha 49905 pg/ml, inhibitor 3nM): 1.47
block of hIL-1β driven IL-6 release [3]: could block the release of IL-6
Mean OD (OD 450nm) ([3]; hu IL-1b 0 pg/mL): 0.034
IL-1beta (mean, SD): mean readout (IL-6 release) ([3]; hu IL-1b 0 pg/mL): 0
Mean OD (OD 450nm) ([3]; hu IL-1b 40 pg/mL): 0.047
IL-1beta (mean, SD): mean readout (IL-6 release) ([3]; hu IL-1b 40 pg/mL): 0
Mean OD (OD 450nm) ([3]; hu IL-1b 80 pg/mL): 0.079
IL-1beta (mean, SD): mean readout (IL-6 release) ([3]; hu IL-1b 80 pg/mL): 0
Mean OD (OD 450nm) ([3]; hu IL-1b 120 pg/mL): 0.102
IL-1beta (mean, SD): mean readout (IL-6 release) ([3]; hu IL-1b 120 pg/mL): 0
Mean OD (OD 450nm) ([3]; hu IL-1b 160 pg/mL): 0.157
IL-1beta (mean, SD): mean readout (IL-6 release) ([3]; hu IL-1b 160 pg/mL): 404.5
Mean OD (OD 450nm) ([3]; hu IL-1b 200 pg/mL): 0.162
IL-1beta (mean, SD): mean readout (IL-6 release) ([3]; hu IL-1b 200 pg/mL): 439.1
effect on hIL-1α driven IL-6 release [4]: could block the release of IL-6
Mean OD (OD 450nm) ([4]; hu IL-1A 0 pg/mL): 0.042
Mean OD (OD 450nm) ([4]; hu IL-1A 40 pg/mL): 0.05
Mean OD (OD 450nm) ([4]; hu IL-1A 80 pg/mL): 0.061
Mean OD (OD 450nm) ([4]; hu IL-1A 120 pg/mL): 0.067
Mean OD (OD 450nm) ([4]; hu IL-1A 160 pg/mL): 0.073
Mean OD (OD 450nm) ([4]; hu IL-1A 200 pg/mL): 0.103
IL-1alpha (mean, SD): mean readout (IL-6 release) ([4]; hu IL-1a 0 pg/mL): 0
IL-1alpha (mean, SD): mean readout (IL-6 release) ([4]; hu IL-1a 40 pg/mL): 0
IL-1alpha (mean, SD): mean readout (IL-6 release) ([4]; hu IL-1a 80 pg/mL): 0
IL-1alpha (mean, SD): mean readout (IL-6 release) ([4]; hu IL-1a 120 pg/mL): 0
IL-1alpha (mean, SD): mean readout (IL-6 release) ([4]; hu IL-1a 160 pg/mL): 0
IL-1alpha (mean, SD): mean readout (IL-6 release) ([4]; hu IL-1a 200 pg/mL): 3.7
